The values below come from patent US20220324803A1 (Teon Therapeutics, Inc., priority 2019, published 2022).

The structures appear in SMILES notation.

As usually defined, the Ki is the dissociation constant of the complex between target and ligand, obtained from inhibition or displacement. A lower Ki goes with higher affinity. In general, IC50 refers to the concentration that gives 50% inhibition.

Experiment [1] deals with aberrant crypt foci and intestinal polyps. As to conditions: mouse disease model; Mutoh et al. 2002; cited from earlier work.
Experiment [2] addresses T1, human Prostanoid EP4 Receptor (EP4) (Homo sapiens, UniProt P35408).
T1 construct: expressed in transfected cells; host or cells: HEK293 (G418 selection); membranes prepared by differential centrifugation
The experiment is described as follows: Prostanoid EP4 binding assay (3H-prostaglandin E2 displacement, cell membranes). As to conditions: HEK293 cell membranes with human EP4, 3H-prostaglandin E2, 24° C. The method, then:
HEK293 cells transfected with human Prostanoid EP4 Receptor (EP4) are maintained in DMEM supplemented with L-Glutamine, 10% FBS and 300 μg/ml G418. Cells are harvested and membranes prepared by differential centrifugation, following lysis of the cells in the presence of protease inhibitors, for use in the receptor binding assay. EP4 binding assay is performed in 50 mM HEPES pH7.4, 5 mM MgCl2, 1 mM CaCl2) and 0.2% BSA. Testing compounds are diluted with DMSO to make 8-point 4-fold serial dilution. Cell membrane homogenates are incubated at 24° C. with ^3H-prostaglandin E2 in the absence or presence of the testing compound in assay buffer. Nonspecific binding (Low control: LC) and total binding (High control: HC) are determined in the presence or absence of saturated cold ligand Prostaglandin E2 (PGE2). Specific binding is calculated by subtracting nonspecific binding from total binding. When binding assays are completed, the reaction mixture is filtered rapidly under vacuum through glass fiber filters (GF/C, Packard) presoaked with 0.5% BSA for at least 0.5 hour at room temperature and then washed for 4 times with cold wash buffer (50 mM HEPES pH7.4, 500 mM NaCl, 0.1% BSA) using a 96-sample Perkin Elmer Filtermate Harvester (Unifilter, Packard). The filters are dried for 1 hour at 50 degrees then counted for radioactivity in a scintillation counter using Perkin Elmer Microscint 20 cocktail. ^3H trapped on filter is counted using Perkin Elmer MicroBeta2 Reader. Inhibition is calculated using following equation: % Inhibition=(1−(Assay well−Average_LC)/(Average_HC−Average_LC))×100%. The results are expressed as a percent inhibition of the control radioligand specific binding. Data are analyzed and IC50 is calculated using GraphPad Prism 5 and the model “log(inhibitor) vs. response—Variable slope”. The binding affinity of the compounds is determined by using the Cheng and Prusoff equation Ki=IC50/(1+[radioligand]/Kd).

Experiment [3] has as its target T1, human Prostanoid EP4 Receptor (EP4). The experiment is described as follows: Prostanoid EP4 FLIPR assay (calcium flux, PGE2 addition). As to conditions: HEK293 cells transfected with human EP4, Fluo-4 calcium dye. It is filed as cell-based. The method, then:
(§1) HEK293 cells transfected with human Prostanoid EP4 Receptor (EP4) or CHO cells transfected with human Prostanoid EP2 Receptor (EP2) are maintained in DMEM supplemented with L-Glutamine, 10% FBS and 300 μg/ml G418. Cells are plated at 20,000 cells/well in black 384-well Poly-D-Lysine protein coating plate and incubated at 37° C., 5% CO2 for 24 h. Prior to the assay, calcium-sensitive dye Fluo-4 Direct™ (Molecular Devices) is reconstituted according to manufacturer instructions. The reconstituted dye was diluted in assay buffer (1× HBSS, 20 mM HEPES, and 2.5 mM Probenicid, pH 7.4). Growth media is removed and 20 μl of this diluted dye is added to each well at a final concentration of 2 μM. Plates are incubated for 50 min at 37° C. 5% C02 and 10 min at RT after dye addition. Testing compounds are diluted with DMSO to make 10-point 4-fold serial dilution. After the pre-treatment incubation, fluorescence intensity is measured on a FlexStation II fluorometric imaging plate reader (Molecular Devices). Relative fluorescence units (RFU) are measured before (20 readings) and after (40 readings) the PGE2 addition for a total 60 sec read time (Excitation=485 nm, Emission=525 nm). Data are analyzed and IC50 is calculated using GraphPad Prism 5 and the model “log(inhibitor) vs. response—Variable slope”.
(§2) Illustrative data for representative compounds are described in Table 2.
A general note: Calcium assays in cells follow changes in intracellular calcium, usually with a dye or a luminescent sensor.

Experiment [4] has as its target T2, human Prostanoid EP2 Receptor (EP2) (Homo sapiens, UniProt P43116).
T2 construct: expressed in transfected cells; host or cells: CHO (G418 selection)
The experiment is described as follows: Prostanoid EP2 FLIPR assay (calcium flux, PGE2 addition). The experiment is classed as cell-based. The settings on record: CHO cells transfected with human EP2, Fluo-4 calcium dye. As to the method:
as §1, §2

For the next experiment, the system named is human NSCLC. As to conditions: in vitro; cited from earlier work.
Experiment [5] has as its system murine mammary tumour cells. As to conditions: mouse, in vivo; cited from earlier work.
For experiment [6], the system named is human inflammatory breast cancer cells. The settings on record: Robertson et al. 2008; cited from earlier work.
The subject of experiment [7] is castration-resistant prostate cancer. As to conditions: mouse xenograft disease model; Terada et al. 2010; cited from earlier work.

T1 sequence (P35408 whole entry): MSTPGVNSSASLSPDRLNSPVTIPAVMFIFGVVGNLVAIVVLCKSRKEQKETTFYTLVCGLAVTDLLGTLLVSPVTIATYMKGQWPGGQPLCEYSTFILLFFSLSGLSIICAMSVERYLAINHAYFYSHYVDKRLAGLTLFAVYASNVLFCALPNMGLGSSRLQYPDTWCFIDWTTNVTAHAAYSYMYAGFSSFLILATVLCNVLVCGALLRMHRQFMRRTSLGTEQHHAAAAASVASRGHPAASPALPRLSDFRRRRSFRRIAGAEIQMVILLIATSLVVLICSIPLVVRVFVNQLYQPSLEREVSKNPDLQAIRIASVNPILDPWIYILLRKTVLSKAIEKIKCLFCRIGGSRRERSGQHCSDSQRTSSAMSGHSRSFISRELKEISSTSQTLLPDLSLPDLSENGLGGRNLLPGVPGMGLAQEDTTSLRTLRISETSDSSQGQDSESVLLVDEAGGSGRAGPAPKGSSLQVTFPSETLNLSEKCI
T2 sequence (P43116 whole entry): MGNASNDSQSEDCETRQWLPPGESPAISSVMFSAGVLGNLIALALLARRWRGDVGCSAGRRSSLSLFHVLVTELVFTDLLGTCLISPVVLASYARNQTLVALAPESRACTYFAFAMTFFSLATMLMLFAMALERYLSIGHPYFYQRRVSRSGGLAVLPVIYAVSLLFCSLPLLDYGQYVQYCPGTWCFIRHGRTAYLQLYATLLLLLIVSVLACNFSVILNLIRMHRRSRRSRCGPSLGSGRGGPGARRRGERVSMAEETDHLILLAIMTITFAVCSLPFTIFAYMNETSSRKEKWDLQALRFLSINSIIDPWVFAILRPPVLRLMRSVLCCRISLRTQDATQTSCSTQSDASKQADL

For the molecule `CC(C(=O)Nc1ccccc1Cc1ccccc1C(=O)O)c1cccc2ccccc12` (stereo not drawn) [ONO-AE2-227], the “formation of aberrant crypt foci and intestinal polyps” value in experiment [1] is “reduced the formation of aberrant crypt foci and intestinal polyps”.
With `O=C(O)CC12CC(NC(=O)c3cnn4cccc(Cc5ccc(C(F)(F)F)cc5)c34)(C1)C2` [Compound 15, 2-[3-[[4-[[4-(trifluoromethyl)phenyl]methyl]pyrazolo[1,5-a]pyridine-3-carbonyl]amino]-1-bicyclo[1.1.1]pentanyl]acetic acid], the Ki in experiment [2] was under 100 nM. In addition, the IC50 in experiment [3] was under 100 nM; in experiment [4], over 1000 nM.
Consider `O=C(O)CC/C=C\CC[C@H]1[C@H](N2CCOCC2)C(=O)C[C@H]1OCc1ccc(-c2ccccc2)cc1` [AH-23848], for which the “tumorigenic effects of PGE2 on human NSCLC growth” value with human NSCLC is “successfully inhibited”. In addition, the “metastasis of murine mammary tumour cells” value in experiment [5] is given as “reduced metastasis”.
Molecule `C[C@H](NC(=O)c1cnn2cccc(Cc3ccc(C(F)(F)F)cc3)c12)c1ccc(C(=O)O)cc1` [Compound 1, 4-[(1S)-1-[[4-[[4-(trifluoromethyl)phenyl]methyl]pyrazolo[1,5-a]pyridine-3-carbonyl]amino]ethyl]benzoic acid] displayed a Ki in experiment [2] of under 100 nM. The IC50 is under 100 nM in experiment [3] and over 1000 nM in experiment [4].
Take `C[C@H](NC(=O)c1n[nH]c2cccc(Cc3ccc(C(F)(F)F)cc3)c12)c1ccc(C(=O)O)cc1` [Compound 7, 4-[(1S)-1-[[4-[[4-(trifluoromethyl)phenyl]methyl]-1H-indazole-3-carbonyl]amino]ethyl]benzoic acid]: the Ki in experiment [2] is under 100 nM. Moreover, the IC50 in experiment [3] was under 100 nM; in experiment [4] it was over 1000 nM.
Consider `CCOc1c2c(c(OCC)c3ccccc13)C(=O)N(c1ccc(CC(=O)NS(=O)(=O)c3ccccc3)cc1)C2` [GW-627368X], for which the “proliferation and invasion of human inflammatory breast cancer cells” value in experiment [6] is “selectively inhibited both proliferation and invasion”.
As to `O=C(N[C@H]1CC2(C1)C[C@H](C(=O)O)C2)c1cnn2cccc(Cc3ccc(C(F)(F)F)cc3)c12` (single isomer, unassigned) [Compound 14A, cis-6-[[4-[[4-(trifluoromethyl)phenyl]methyl]pyrazolo[1,5-a]pyridine-3-carbonyl]amino]spiro[3.3]heptane-2-carboxylic acid], in experiment [2], the Ki lay within 100 to 499 nM. Besides, the values for the IC50 in experiment [3] and in experiment [4] were 100 to 499 nM and over 1000 nM, respectively.
In experiment [2], `C[C@H](NC(=O)c1cnn2cccc(Cc3cc4ccccc4cn3)c12)c1ccc(C(=O)O)cc1` [Compound 12, 4-[(1S)-1-[[4-(3-isoquinolylmethyl)pyrazolo[1,5-a]pyridine-3-carbonyl]amino]ethyl]benzoic acid] yielded a Ki of under 100 nM. The IC50 in experiment [3] is under 100 nM; in experiment [4], over 1000 nM.
In experiment [2], `C[C@H](NC(=O)c1cnn2cccc(Cc3cccc(C(F)(F)F)c3)c12)c1ccc(C(=O)O)cc1` [Compound 3, 4-[(1S)-1-[[4-[[3-(trifluoromethyl)phenyl]methyl]pyrazolo[1,5-a]pyridine-3-carbonyl]amino]ethyl]benzoic acid] came in with a Ki of under 100 nM. For the same molecule, the IC50 is under 100 nM in experiment [3] and over 1000 nM in experiment [4].
In experiment [2], `O=C(NC1CC2(C1)CC(C(=O)O)C2)c1cnn2cccc(Cc3cc4ccccc4cn3)c12` (single isomer, unassigned) [Compound 13A, cis-2-[[4-(3-isoquinolylmethyl)pyrazolo[1,5-a]pyridine-3-carbonyl]amino]spiro[3.3]heptane-6-carboxylic acid] showed a Ki of over 500 nM. In addition, the IC50 in experiment [3] was in the range of 100 to 499 nM.
In experiment [2], `O=C(NC1CC2(C1)CC(C(=O)O)C2)c1cnn2cccc(Cc3ccc(C(F)(F)F)cc3)c12` (stereo not drawn) [Compound 2, 2-[[4-[[4-(trifluoromethyl)phenyl]methyl]pyrazolo[1,5-a]pyridine-3-carbonyl]amino]spiro[3.3]heptane-6-carboxylic acid] gave a Ki of under 100 nM. Besides, the IC50 in experiment [3] was under 100 nM; in experiment [4], over 1000 nM.
The molecule `O=C(O)CC12CC(NC(=O)c3n[nH]c4cccc(Cc5ccc(C(F)(F)F)cc5)c34)(C1)C2` [Compound 18, 2-(3-(4-(4-(trifluoromethyl)benzyl)-1H-indazole-3-carboxamido)bicyclo[1.1.1]pentan-1-yl)acetic acid] displayed a Ki in experiment [2] of 100 to 499 nM. For the same molecule, the IC50 in experiment [3] was under 100 nM.
`O=C(NC1CC2(C1)CC(C(=O)O)C2)c1cnn2cccc(Cc3cccc(C(F)(F)F)c3)c12` (stereo not drawn) [Compound 4, 2-[[4-[[3-(trifluoromethyl)phenyl]methyl]pyrazolo[1,5-a]pyridine-3-carbonyl]amino]spiro[3.3]heptane-6-carboxylic acid] yielded a Ki in experiment [2] of under 100 nM. Moreover, the IC50 in experiment [3] is under 100 nM; in experiment [4], over 1000 nM.
The molecule `CCn1nc(C(=O)N[C@@H](C)c2ccc(C(=O)O)cc2)c2c(Cc3ccc(C(F)(F)F)cc3)cccc21` [Compound 9, 4-[(1S)-1-[[1-ethyl-4-[[4-(trifluoromethyl)phenyl]methyl]indazole-3-carbonyl]amino]ethyl]benzoic acid] registered a Ki in experiment [2] of under 100 nM. Also, the IC50 is under 100 nM in experiment [3] and over 1000 nM in experiment [4].
`O=C(NC1CC2(C1)CC(C(=O)O)C2)c1n[nH]c2cccc(Cc3ccc(C(F)(F)F)cc3)c12` (stereo not drawn) [Compound 8, 2-[[4-[[4-(trifluoromethyl)phenyl]methyl]-1H-indazole-3-carbonyl]amino]spiro[3.3]heptane-6-carboxylic acid] came in with a Ki in experiment [2] of under 100 nM. In addition, the results for the IC50 in experiment [3] and in experiment [4] were under 100 nM and over 1000 nM, respectively.
In the case of `O=C(O)CC12CC(NC(=O)c3cnn4cccc(Cc5cccc(C(F)(F)F)c5)c34)(C1)C2` [Compound 16, 2-[3-[[4-[[3-(trifluoromethyl)phenyl]methyl]pyrazolo[1,5-a]pyridine-3-carbonyl]amino]-1-bicyclo[1.1.1]pentanyl]acetic acid], the Ki in experiment [2] was over 500 nM. Further, in experiment [3], the IC50 lay in the range of 100 to 499 nM.
Take `CC(C(=O)Nc1cc(C#N)ccc1CCCC(=O)O)c1ccc(F)c2ccccc12` (stereo not drawn) [ONO-AE3-208]: the “castration-resistant prostate cancer progression” value in experiment [7] was “suppressed castration-resistant prostate cancer progression”. The “metastasis of murine mammary tumour cells” value in experiment [5] is “reduced metastasis”.
The molecule `O=C(N[C@H]1CC2(C1)C[C@H](C(=O)O)C2)c1cnn2cccc(Cc3ccc(C(F)(F)F)cc3)c12` (single isomer, unassigned) [Compound 14B, trans-2-[[4-[[4-(trifluoromethyl)phenyl]methyl]pyrazolo[1,5-a]pyridine-3-carbonyl]amino]spiro[3.3]heptane-6-carboxylic acid] displayed a Ki in experiment [2] of under 100 nM. The IC50 in experiment [3] was under 100 nM; in experiment [4], over 1000 nM.
Molecule `CCn1nc2cccc(Cc3ccc(C(F)(F)F)cc3)c2c1C(=O)N[C@@H](C)c1ccc(C(=O)O)cc1` [Compound 10, 4-[(1S)-1-[[2-ethyl-4-[[4-(trifluoromethyl)phenyl]methyl]indazole-3-carbonyl]amino]ethyl]benzoic acid] showed a Ki in experiment [2] of 100 to 499 nM. Also, the values for the IC50 in experiment [3] and in experiment [4] were under 100 nM and over 1000 nM, respectively.
